In US7148352B2, “Method of inhibiting neurotrophin-receptor binding” (Queen's University at Kingston, priority 1999, dated 2006):
Where “and” joins values, the source holds several entries; their conditions need not be identical. Equal values may be shown once.

Legend:
Parameters in all cases: species or system rat
[1] = test system: p75^NTR (PC12^nnr5 cells, expressing p75^NTR only); experiment: 125I-NGF receptor binding to PC12^nnr5 cells in the presence of competitor; conditions: compound 50 μM, 125I-NGF 1 nM, 2 h at 4° C.; for nnr5 % of Max, Avg: average of three values; for nnr5 % of Max (individual determinations): receptor binding as percentage of binding in absence of competitor
Procedure: (§1) The radio-iodination and receptor binding of NGF (Sutter et al., 1979) was performed with modifications (Ross et al., 1997) as follows: Evaluation of the ability of NCP compounds to inhibit TrkA and p75^NTR binding was determined by the binding of ^125I-NGF to PC12 cells (rat pheochromocytoma cells expressing TrkA and p75^NTR; obtained from ATCC) and PC12^nnr5 (rat pheochromocytoma cells expressing p75^NTR only; obtained from Dr. L. Greene, Columbia University, NY). The p75^NTR is in a low affinity state and a high affinity state, respectively, in these cell types (Ross et al., 1998). PC12 and PC12^nnr5 cells were grown in RPMI (Sigma) with 10% heat inactivated donor horse serum and 5% fetal calf serum. Cells were harvested by replacing the medium with calcium, magnesium-free balanced salt solution (Gey's solution) and incubating at 37° C. for 15 minutes. Cells were pelleted by centrifugation and suspended in HKR buffer (10 mM Hepes [pH 7.35] containing 125 mM NaCl, 4.8 mM KCl, 1.3 mM CaCl2, 1.2 mM MgSO4, 1.2 mM KH2PO4, 1 g/L glucose and 1 g/L BSA) at a cell concentration of 2×10^6/mL and kept at 4° C. Triplicate tubes were set up for total binding, non-specific binding and binding in the presence of candidate competitor molecule (i.e., a tube for each data point). Each tube contained ^125I-NGF (at 1 nM), 400,000 cells (for a final cell concentration of 10^6/mL) and NGF (50 nM, to define non-specific binding), as required. The tubes were incubated for 2 h at 4° C. and specific binding evaluated by measuring specifically bound DPM (Ross et al., 1997). Data were analysed and the results expressed as receptor binding observed in the presence of competitor (e.g. NCP compounds) as a percentage of receptor binding in the absence of a competitor.

[2] = biological target: T1, TrkA and p75^NTR (PC12 cells) (Mus musculus, UniProt P01139); experiment: 125I-NGF receptor binding to PC12 cells in the presence of competitor; conditions: compound 50 μM; 125I-NGF 1 nM; 2 h at 4° C.; average of three values
T1 construct: PC12 cells (rat pheochromocytoma cells expressing TrkA and p75^NTR; obtained from ATCC); host or cells: PC12 rat pheochromocytoma cells (intact, in suspension)
Procedure: as §1

[3] = test system: T2, TrkA and p75^NTR (PC12 cells); experiment: as above; conditions: compound 50 μM; 125I-NGF 1 nM; 2 h at 4° C.; receptor binding as percentage of binding in absence of competitor
T2 construct: PC12 cells (rat pheochromocytoma cells expressing TrkA and p75^NTR; obtained from ATCC); host or cells: PC12 rat pheochromocytoma cells (intact, in suspension)
Procedure: as §1

T2 sequence (P01139 122-241): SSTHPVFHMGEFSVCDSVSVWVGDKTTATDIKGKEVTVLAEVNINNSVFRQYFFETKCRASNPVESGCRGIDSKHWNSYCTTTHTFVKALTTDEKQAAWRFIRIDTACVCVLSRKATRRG
T1 sequence (P01139 122-241): as above

| PC12 % of Max, Avg [2] | SMILES | nnr5 % of Max, Avg [1] | nnr5 % of Max (individual determinations) [1] | PC12 % of Max (individual determinations) [3] |
| --- | --- | --- | --- | --- |
| = 116 % of Max | O=C(O)CN1C(=O)c2ccc(C(=O)O)cc2C1=O [Compound 100, 4-carboxy-N-(1-carboxymethyl)phthalimide] | = 100 % of Max | 108 % of Max and 111 % of Max and 80 % of Max | 102 % of Max and 108 % of Max and 137 % of Max |
| = 107 % of Max | O=C(O)CCN1C(=O)c2ccc(C(=O)O)cc2C1=O [Compound 101, 4-carboxy-N-(2-carboxyethyl)phthalimide] | = 81 % of Max | 89 % of Max and 91 % of Max and 64 % of Max | 89 % of Max and 94 % of Max and 139 % of Max |
| = 91 % of Max | O=C(O)CCCN1C(=O)c2ccc(C(=O)O)cc2C1=O [Compound 102, 4-carboxy-N-(3-carboxypropyl)phthalimide] | = 55 % of Max | 55 % of Max and 50 % of Max and 61 % of Max | 79 % of Max and 80 % of Max and 113 % of Max |
| = 78 % of Max | O=C(O)CCCCN1C(=O)c2ccc(C(=O)O)cc2C1=O [Compound 103, 4-carboxy-N-(4-carboxybutyl)phthalimide] | = 47 % of Max | 32 % of Max and 69 % of Max and 41 % of Max | 69 % of Max and 65 % of Max and 100 % of Max |
| = 56 % of Max | O=C(O)CCCCCN1C(=O)c2ccc(C(=O)O)cc2C1=O [Compound 104, 4-carboxy-N-(5-carboxypentyl)phthalimide] | = 37 % of Max | 30 % of Max and 65 % of Max and 17 % of Max | 51 % of Max and 50 % of Max and 66 % of Max |
| = 56 % of Max | O=C(O)c1ccc2c(c1)C(=O)N(c1ccccc1)C2=O [Compound 109, 4-carboxy-N-phenylphthalimide] | = 73 % of Max | 70 % of Max and 74 % of Max and 75 % of Max | 50 % of Max and 60 % of Max and 57 % of Max |
| = 109 % of Max | O=C(O)CN1C(=O)c2cccc([N+](=O)[O-])c2C1=O [Compound 120, 3-nitro-N-(1-carboxymethyl)phthalimide] | = 183 % of Max | 218 % of Max and 200 % of Max and 130 % of Max | 133 % of Max and 92 % of Max and 103 % of Max |
| = 103 % of Max | O=C(O)CCN1C(=O)c2cccc([N+](=O)[O-])c2C1=O [Compound 121, 3-nitro-N-(2-carboxyethyl)phthalimide] | = 165 % of Max | 204 % of Max and 188 % of Max and 103 % of Max | 121 % of Max and 92 % of Max and 103 % of Max |
| = 97 % of Max | O=C(O)CCCN1C(=O)c2cccc([N+](=O)[O-])c2C1=O [Compound 122, 3-nitro-N-(3-carboxypropyl)phthalimide] | = 163 % of Max | 232 % of Max and 152 % of Max and 104 % of Max | 106 % of Max and 88 % of Max and 98 % of Max |
| = 97 % of Max | O=C(O)CCCCN1C(=O)c2cccc([N+](=O)[O-])c2C1=O [Compound 123, 3-nitro-N-(4-carboxybutyl)phthalimide] | = 150 % of Max | 172 % of Max and 161 % of Max and 117 % of Max | 118 % of Max and 75 % of Max and 98 % of Max |
| = 92 % of Max | O=C(O)CCCCCN1C(=O)c2cccc([N+](=O)[O-])c2C1=O [Compound 124, 3-nitro-N-(5-carboxypentyl)phthalimide] | = 153 % of Max | 166 % of Max and 182 % of Max and 110 % of Max | 117 % of Max and 71 % of Max and 89 % of Max |
| = 111 % of Max | O=C(O)CN1C(=O)c2ccc([N+](=O)[O-])cc2C1=O [Compound 140, 4-nitro-N-(1-carboxymethyl)phthalimide] | = 99 % of Max | 89 % of Max and 108 % of Max and 100 % of Max | 100 % of Max and 126 % of Max and 108 % of Max |
| = 90 % of Max | O=C(O)CCN1C(=O)c2ccc([N+](=O)[O-])cc2C1=O [Compound 141, 4-nitro-N-(2-carboxyethyl)phthalimide] | = 96 % of Max | 98 % of Max and 114 % of Max and 77 % of Max | 74 % of Max and 108 % of Max and 87 % of Max |
| = 66 % of Max | O=C(O)CCCN1C(=O)c2ccc([N+](=O)[O-])cc2C1=O [Compound 142, 4-nitro-N-(3-carboxypropyl)phthalimide] | = 51 % of Max | 52 % of Max and 51 % of Max (2×) | 55 % of Max and 77 % of Max and 67 % of Max |
| = 78 % of Max | O=C(O)CCCCN1C(=O)c2ccc([N+](=O)[O-])cc2C1=O [Compound 143, 4-nitro-N-(4-carboxybutyl)phthalimide] | = 75 % of Max | 76 % of Max and 79 % of Max and 71 % of Max | 65 % of Max and 97 % of Max and 72 % of Max |

| SMILES | PC12 % of Max, Avg [2] | nnr5 % of Max, Avg [1] | nnr5 % of Max (individual determinations) [1] | PC12 % of Max (individual determinations) [3] |
| --- | --- | --- | --- | --- |
| O=C(O)c1ccc(N2C(=O)c3ccc(C(=O)O)cc3C2=O)cc1 [Compound 105, 4-carboxy-N-(p-carboxyphenyl)phthalimide] | = 36 % of Max | = 34 % of Max | 31 % of Max and 17 % of Max and 55 % of Max | 29 % of Max and 38 % of Max and 40 % of Max |
| O=C(O)c1cccc(N2C(=O)c3ccc(C(=O)O)cc3C2=O)c1 [Compound 106, 4-carboxy-N-(m-carboxyphenyl)phthalimide] | = 44 % of Max | = 26 % of Max | 37 % of Max and 16 % of Max and 24 % of Max | 40 % of Max (2×) and 52 % of Max |
| O=C(O)c1ccc2c(c1)C(=O)N(c1ccccc1C(=O)O)C2=O [Compound 107, 4-carboxy-N-(o-carboxyphenyl)phthalimide] | = 100 % of Max | = 85 % of Max | 58 % of Max and 113 % of Max and 83 % of Max | 111 % of Max and 86 % of Max and 103 % of Max |
| O=C(O)c1ccc(CN2C(=O)c3ccc(C(=O)O)cc3C2=O)cc1 [Compound 108, 4-carboxy-N-(p-carboxyphenylmethyl)phthalimide] | = 73 % of Max | = 93 % of Max | 135 % of Max and 77 % of Max and 66 % of Max | 90 % of Max and 55 % of Max and 75 % of Max |
| O=C(O)c1ccc(N2C(=O)c3cccc([N+](=O)[O-])c3C2=O)cc1 [Compound 125, 3-nitro-N-(p-carboxyphenyl)phthalimide] | = 90 % of Max | = 49 % of Max | 47 % of Max (2×) and 54 % of Max | 83 % of Max and 87 % of Max and 99 % of Max |
| O=C(O)c1cccc(N2C(=O)c3cccc([N+](=O)[O-])c3C2=O)c1 [Compound 126, 3-nitro-N-(m-carboxyphenyl)phthalimide] | = 77 % of Max | = 52 % of Max | 34 % of Max and 54 % of Max and 69 % of Max | 90 % of Max and 69 % of Max and 72 % of Max |
| O=C(O)c1ccccc1N1C(=O)c2cccc([N+](=O)[O-])c2C1=O [Compound 127, 3-nitro-N-(o-carboxyphenyl)phthalimide] | = 118 % of Max | = 112 % of Max | 136 % of Max and 129 % of Max and 71 % of Max | 140 % of Max and 101 % of Max and 114 % of Max |
